Experimental data published in patent US10314816B2, “Antimicrobial compounds, compositions and methods of use thereof” (Wisconsin Alumni Research Foundation, priority 2012, dated 2019).

Key:
S. aureus FRI 100 = assay: Minimum stationary-bactericidal concentration (MSC); assay type: cell-based, Staphylococcus aureus; conditions: for MSC: S. aureus FRI 100, stationary cells, 24 hours
Experimental: Determination of the Minimum Stationary-Bactericidal Concentration.
Cultures of C. crescentus (24 hour incubation) and S. aureus cells (5 day incubation) were grown from single colonies. Cells were collected by centrifugation (8500 rpm for 2.5 minutes) and re-suspended in M2 salt solution (for C. crescentus; 1.74 g/L Na2HPO4, 1.06 g/L KH2PO4, and 0.5 g/L NH4Cl) or phosphate-buffered saline (for S. aureus; PBS, Fisher Scientific). The centrifugation and re-suspension was repeated two more times. After the repeated washing steps, the cell suspension was diluted 10-fold to achieve approximately 10^8 cells/mL. Aliquots of the diluted cell suspension were transferred into wells of a 96-well plate (100 μL/well), and 2-fold serial dilutions were performed to test a range of antibiotic concentrations. The plate was sealed with Parafilm® and incubated for 24 hours at room temperature in the dark. After incubation, 50 μl was removed from each well to spread on nutrient agar plates (1.5% agar in PYE for C. crescentus, and LB for S. aureus). The colonies on each plate were counted after growing the cells for 1-2 days. For determining the kinetics of bactericidal activity of DCAP on stationary cultures, the washed cells were diluted by 100-fold in appropriate solutions and tested using a single concentration of the compound while including a DMSO control sample. Cell suspensions were kept in closed microcentrifuge tubes instead of the wells of 96-well plates. 100 μL of the suspensions was removed for plating at each time point. All MSC experiments were performed in static conditions.
In addition to its activity against actively growing bacteria, DCAP kills cells in stationary phase (Table 3). This property was tested against C. crescentus and S. aureus. […] To ensure that bacteria were deprived of nutrients, the cells were grown into late stationary phase (i.e., 24 hours for C. crescentus and 5 days for S. aureus). These cells were collected, suspended in isotonic solutions devoid of amino acids or sugars, and treated with a small molecule (DMSO, DCAP, CCCP or ampicillin). Cell viability was measured over time by plating culture aliquots on non-selective, solid growth media. The minimum concentration of antibiotic required to completely eliminate colony formation was designated as the minimum stationary-bactericidal concentration (MSC). […] CCCP inhibited the proliferation of C. crescentus cells regardless of their physiological status. However, the MSC of CCCP for S. aureus was >300-fold higher than the MIC. This dramatic decrease in the effectiveness of CCCP in S. aureus may be due to changes in membrane composition as cells adjust their metabolism in nutrient-deprived conditions.

B. subtilis 168 = assay: MIC of bacterial growth, macrodilution (Table 2); assay type: cell-based; conditions: Bacillus subtilis
Experimental: Bacterial strains and growth conditions. Luria-Bertani (LB) media (10 g/L tryptone, 10 g/L NaCl, 5 g/L yeast extract, pH 7.2) was used to grow B. subtilis 168, S. aureus FRI100, and P. aeruginosa K1115 strains. For P. aeruginosa PAO1 and K1119 strains and two E. coli BW25113 strains, M8 minimal media (241 mg/L MgSO4, 4 mg/L glucose, 5 mg/L casamino acids, 12.8 g/L Na2HPO4.7H2O, 3 g/L KH2PO4, and 0.5 g/L NaCl) was used. PYE media (2 g/L peptone, 1 g/L yeast extract, 0.8 mM MgSO4, and 0.5 mM CaCl2) was used for culturing C. crescentus cells at 30° C. All cultures were grown at 37° C., except for C. crescentus (30° C.). All cultures were grown while shaking at 200 rpm.
Determination of the minimum inhibitory concentration (MIC) of bacterial growth. The MIC of various organisms in liquid media was determined using the macrodilution method according to the NCCLS guidelines. For the starting inoculum, cultures were diluted to contain approximately 5×10^5 cells/mL in growth media. To create a two-fold dilution series for the macrodilution technique, each compound was added to the first culture tube (4 mL total volume) at the highest concentration. 2 mL of this culture was diluted into an equal volume of inoculated media (a two-fold dilution). The final volume for each culture was 2 mL.

GFP-MinD = assay: Measurement of compound effects on MinD localization; assay type: cell-based, Bacillus subtilis; conditions: B. subtilis cells, treated 20 minutes, compared to DMSO
Experimental: Measurement of compound effects on MinD: B. subtilis DS4294 (amyE::Pxyl-GFP-minD cat) cells were grown to exponential phase (λ=600 nm, 0.4-0.7) in LB with incubation at 30° C. and 200 rpm shaking. Cells were induced for GFP-MinD production by adding xylose to the media to a final concentration of 0.1% (w/v) followed by incubating for 75 min. After induction, cells were treated with compounds for 20 minutes before imaging. Other details for imaging conditions and data analysis were identical to those described for MipZ-YFP, except for the definition of poles, and a set of criteria used for defining ‘wildtype’ protein localization. ‘Wildtype’ was defined as 1) GFP-MinD was bipolar, meaning there were two peaks, and both peaks were at the poles (1-20% and 80-100% of the normalized cell length); 2) GFP-MinD was at the mid-cell in addition to the bipolar localization, meaning there were three peaks with two of them at the poles and one at mid-cell; and 3) GFP-MinD was at an quaternary position (20-40% and 60-80% of the normalized cell length) in addition to the bipolar and mid-cell localization (the total number of peaks was 4 if there is one quaternary peak, and the total was 5 if there are two quaternary peaks). Because B. subtilis cells can initiate division prior to finishing an earlier division and the completion of septation, these normal cells have peaks at quaternary positions. […]

Row | SMILES | MSC (S. aureus FRI 100) | MSC relative to MIC (S. aureus FRI 100; S. aureus, stationary vs growing cells) | MIC (B. subtilis 168) | GFP-MinD localization (GFP-MinD) | Minimum time required to obtain the MSC (S. aureus FRI 100; S. aureus, data not shown)
1 | N#CC(C#N)=NNc1cccc(Cl)c1 [CCCP, carbonyl cyanide m-chlorophenyl hydrazone] | >400 µM | > 300 fold | 10 µM | more diffuse fluorescence throughout the cell but had little effect on the location of the signal | –
2 | OCC(CO)(CO)NCC(O)Cn1c2ccc(Cl)cc2c2cc(Cl)ccc21 (centres unmarked) [DCAP, 2-((3-(3,6-dichloro-9H-carbazol-9-yl)-2-hydroxypropyl)amino)-2-(hydroxymethyl)propane-1,3-diol] | 75 µM | – | 32 µM | GFP-MinD mislocalized | 6 h
